Source: US20220364184A1, “COMPOSITIONS AND METHODS FOR TREATMENT OF A POOR PROGNOSIS SUBTYPE OF COLORECTAL CANCER” (DANA-FARBER CANCER INSTITUTE, INC., priority 2019, published 2022)

B1: Wnt3A: Wnt ligand used to treat RKO cells (protein, UniProt P56704 19-352, looked up)
Protein Wnt-3a: SYPIWWSLAVGPQYSSLGSQPILCASIPGLVPKQLRFCRNYVEIMPSVAEGIKIGIQECQHQFRGRRWNCTTVHDSLAIFGPVLDKATRESAFVHAIASAGVAFAVTRSCAEGTAAICGCSSRHQGSPGKGWKWGGCSEDIEFGGMVSREFADARENRPDARSAMNRHNNEAGRQAIASHMHLKCKCHGLSGSCEVKTCWWSQPDFRAIGDFLKDKYDSASEMVVEKHRESRGWVETLRPRYTYFKVPTERDLVYYEASPNFCEPNPETGSFGTRDRTCNVSSHGIDGCDLLCCGRGHNARAERRREKCRCVFHWCCYVSCQECTRVYDVHTCK

Experiments:
Type in all cases: cell-based, human
[1] = tested on: RKO cells; assay: Live-cell calcium imaging of spontaneous calcium transients (GCaMP5); settings: calcium wave spike library
Procedure: 2 mg/ml neomycin was added to the cell culture medium 48 hrs after transfection to generate cell lines with stable GCaMP5 expression and removed one week prior to the initiation of experiment. Calcium transients were captured by live-cell imaging using a confocal microscope. Time lapse imaging was setup so that an image was captured every 0.5 s for 30 minutes, with an exposure time of 0.5 s. Calcium measurements were normalized to background fluorescence and the relative change in calcium (F(t)) over time was calculated by the formula: […]
where F0 was defined as the average intensity of the 20% lowest grey values in a region of interest (ROI), F was defined as the normalized grey values of ROI in time point t. Global synchronicity was calculated by cross correlation method in FluoroSNNAP (seas.upenn.edu/˜molneuro/fluorosnnap.html).

[2] = tested on: RKO cells; assay: Cell viability of wild-type and BCL9 knockout RKO cells after Poly I:C
[3] = tested on: BCL9; assay: Immunofluorescence / FISH of BCL9 localization; settings: RKO cells
Procedure: At various times after the scratch was made, cells were fixed with 4% paraformaldehyde for 15 minutes at room temperature. Immunofluorescence was subsequently used to identify the location of BCL9 (see immunofluorescence method section for more detail).
Cells were cultured on coming Glass Coverslips (354085, BioCoat) contained within the wells of a 24-well plate for 24 hrs, and then fixed using 4% paraformaldehyde. Cells were washed three times with PBS, permeabilized with 0.5% Triton X-100 (Tris-HCl pH=7.6, 150 mM NaCl, 0.5% Triton X-100 (v/v), washing buffer) for 15 minutes at room temperature, and blocked with 5% BSA for 1 hour at room temperature. The cells were incubated overnight at 4 degrees with the following antibodies; anti-BCL9 (ab37305, Abcam®), NONO (TA504777, Origene®), ILF2 (PA5-18718, ThermoFisher®) or β-catenin (610154, BD Transduction Laboratories). The following day, cells were washed 3 times with PBS and incubated with fluorescently tagged anti-mouse (A11029, ThermoFisher®), rabbit (A11035, ThermoFisher®) or goat (A21447, ThermoFisher®) secondary antibodies for 1 hour at room temperature. Cells were washed 3 times with PBS and stained with DAPI (D9542, Millipore-Sigma®) for two mins. Cells were subsequently washed three times with PBS to remove any residual DAPI stain, and then imaged with an SD confocal microscope. The colocalization threshold is calculated by ImageJ2. Dotted staining area of BCL9 was calculated by the following step: confocal images were processed by High Frequency Signaling Removal to filter out the rapidly changing signal. This process removes the noise and non-dotted staining of BCL9. Then, the top 2% signaling areas were selected. High Frequency Signaling Removal and area size was calculated by ImageJ2. NEAT1 and fluorescence probe was purchased from Biosearch Technology (NEAT1, SMF-2036-1). IF combined FISH of BCL9/NEAT1 was performed as recommended by the supplier.

[4] = tested on: BCL9; assay: Immunoblotting of protein levels; settings: longer exposure, FIG. 3F and 16D
Procedure: Following lysis, cells were incubated on ice for 10 minutes and centrifuged for 10 minutes at 4 degrees at 16000×g.

[5] = tested on: RGS4, CACNA2D1, ADRB1 mRNA; assay: mRNA expression by RNA-seq / qRT-PCR; settings: FIG. 3J
Procedure: RNA was extracted from wild type and BCL9 knockout RKO cells with or without Poly I:C treatment (1 μg/ml) and subsequently purified using the TURBO DNA-free™ Kit (AM1907, invitrogen) to remove any residual DNA. An RNA library was prepared using the ribosome RNA removing method and sequenced with a 150 bp paired-end protocol in the Center for Cancer Computational Biology at the Dana Farber Cancer Institute (PRJNA554110). After quality control (QC) analysis was performed using fastQC, the first 10 bases were trimmed for each read. STAR software was used to map the readings to the human genome (hg19) and duplicates were removed using Picard. HTSeq was used to evaluate the gene expression levels by the count number for each gene and were subsequently annotated using the Ensemble database. Gene differential analysis was then applied to the expression profiling table using R package edgeR. For further analysis, the difference in exon usage between different conditions was calculated and R package DEXSeq was used to find differences between them.

[6] = tested on: BCL9/β-catenin protein complex; assay: Coimmunoprecipitation of BCL9/β-catenin complex
Procedure: To extract nuclear protein, cells were incubated with cytoplasmic lysis buffer (50 mM Tris-HCl pH=8.0, 20 mM NaCl, 2 mM EDTA, 0.5% Tween-20 containing protease/phosphatase Inhibitor, #5872, Cell Signaling®) on ice for 10 mins, centrifuged at 6000×g, and the precipitate collected. This step was repeated 3 times to remove at much cytoplasmic protein as possible. Subsequently, nuclear lysis buffer (50 mM Tris-HCl pH=7.4, 150 mM NaCl, 2 mM EDTA, 1% Triton X-100(v/v) containing protease/phosphatase inhibitor) was added to the precipitate, and sonication was used to lyse the sample before centrifugation at 16000×g for 15 minutes at 4 degrees. 1 mg of the nuclear lysate was blocked with 5% BSA for 1 hr at 4 degrees, before overnight incubation with anti-BCL9 (ab37305 Abcam®, 6109 generated in New England Biolabs), NONO (ab70335, Abcam®), SFPQ (ab38148), ILF2 (H00003608-D01, abnova) or β-catenin (9562L, Cell Signaling®) antibodies. Normal rabbit IgG (sc-3888, Santa Cruz®) was used as a negative control. The following day, Protein G and A DynaBeads (10003D, 10002D, ThermoFisher®) were added to the nuclear lysate at a ratio of 1:1 and rotated for an additional 4 hrs. […] In addition, pulled down protein samples were analyzed by silver staining; bands which existed in anti-BCL9 samples, but not in the anti-normal IgG groups, were cut and used for further MS analysis to validate previous results. […]

[7] = tested on: DLD-1 cells; assay: IF and Co-IP of BCL9 with paraspeckle proteins in DLD-1 cells
Procedure: To extract nuclear protein, cells were incubated with cytoplasmic lysis buffer (50 mM Tris-HCl pH=8.0, 20 mM NaCl, 2 mM EDTA, 0.5% Tween-20 containing protease/phosphatase Inhibitor, #5872, Cell Signaling®) on ice for 10 mins, centrifuged at 6000×g, and the precipitate collected. This step was repeated 3 times to remove at much cytoplasmic protein as possible. Subsequently, nuclear lysis buffer (50 mM Tris-HCl pH=7.4, 150 mM NaCl, 2 mM EDTA, 1% Triton X-100(v/v) containing protease/phosphatase inhibitor) was added to the precipitate, and sonication was used to lyse the sample before centrifugation at 16000×g for 15 minutes at 4 degrees. […] In addition, pulled down protein samples were analyzed by silver staining; bands which existed in anti-BCL9 samples, but not in the anti-normal IgG groups, were cut and used for further MS analysis to validate previous results. […]
Cells were cultured on coming Glass Coverslips (354085, BioCoat) contained within the wells of a 24-well plate for 24 hrs, and then fixed using 4% paraformaldehyde. […] The colocalization threshold is calculated by ImageJ2. Dotted staining area of BCL9 was calculated by the following step: confocal images were processed by High Frequency Signaling Removal to filter out the rapidly changing signal. […]

[8] = tested on: BCL9/paraspeckle proteins (NONO, SFPQ, ILF2); assay: Coimmunoprecipitation of BCL9 with paraspeckle proteins; settings: RKO cells, FIG. 16K
Procedure: This step was repeated 3 times to remove at much cytoplasmic protein as possible. Subsequently, nuclear lysis buffer (50 mM Tris-HCl pH=7.4, 150 mM NaCl, 2 mM EDTA, 1% Triton X-100(v/v) containing protease/phosphatase inhibitor) was added to the precipitate, and sonication was used to lyse the sample before centrifugation at 16000×g for 15 minutes at 4 degrees. […] The following day, Protein G and A DynaBeads (10003D, 10002D, ThermoFisher®) were added to the nuclear lysate at a ratio of 1:1 and rotated for an additional 4 hrs. The beads were washed 3 times with washing buffer (50 mM Tris-HCl pH=7.4, 200 mM NaCl, 2 mM EDTA, 1% Triton X-100(v/v)). The beads were then re-suspended with 2×LDS sample buffer and boiled for 10 mins. For Immunoblotting, the sample was electrophoresed using SDS-PAGE, transferred to nitrocellulose membrane and blocked using non-fat 5% milk.

| Molecule | length and amplitude of calcium transients ([1]; BCL9 knockout cells) | length and amplitude of calcium transients ([1]; wild-type cells) | growth of cells ([2]; BCL9 knockout RKO cells) | growth of cells ([2]; wild-type RKO cells) | partial co-localization between BCL9/IF and NEAT1/FISH signals ([3]; FIG. 16I) | accumulation of BCL9 around the nucleus ([3]; after 6 hrs, FIG. 16C) | BCL9 accumulation around the nucleolus ([3]; longer exposure, FIG. 3F) | BCL9 and ILF2 protein levels [4] | transcription of the full-length RGS4 mRNA isoform ([5]; BCL9 knockout cells) | expression of RGS4, CACNA2D1 and ADRB1 ([5]; wild-type RKO cells, RNA-seq, Poly I:C 1 μg/ml) | amount of BCL9/β-catenin protein complex ([6]; Colo320 cells, FIG. 16J) | location and interaction of BCL9 with paraspeckle proteins [7] | BCL9 binding to paraspeckle proteins [8] | interaction between BCL9 and β-catenin ([6]; RKO cells, FIG. 16K) |
| --- | --- | --- | --- | --- | --- | --- | --- | --- | --- | --- | --- | --- | --- | --- |
| poly I:C | not | enhanced | not | increased | increased | accumulation of BCL9 around the nucleus was observed | induced further BCL9 accumulation around the nucleolus | increased | not rescued | increased | reduced | unresponsive |  |  |
| B1 |  |  |  |  |  |  |  |  |  |  |  |  | did not affect | increased |
